Results as given in US20220306585A1, “PYRAZOLE DERIVATIVES FOR CONTROLLING ARTHROPODS” (Bayer Animal Health GmbH, priority 2019, published 2022).
≈ marks a conversion by molar mass, not a printed value. Values belong to the compound of their own block, whether it stands above or below them.

Key:
[1] = system: Dermacentor variabilis nymph; experiment: Antiparasitic activity after administration to rats: ticks; format: in vivo; conditions: Dermacentor variabilis nymph; for In-vivo Efficacy SD2: study day 2; for In-vivo Efficacy SD9: study day 9; for In-vivo Efficacy SD16: study day 16; for In-vivo Efficacy SD23: study day 23; for In-vivo Efficacy SD30: study day 30; for In-vivo Efficacy SD37: study day 37
Procedure: (§1) Measurement of the Antiparasitic Activity after Administration of a Prodrug to Rats Compounds were dissolved in the appropriate volume of glycerol formal (p.a.) just before application to the animals (dose volume was adjusted to 0.03 mL/kg bodyweight). 5 rats per group were either injected intraperitoneally or subcutaneously. Rats were infested with 30 Dermacentor variabilis nymphs on study days −2, 7, 14, 21, 28, 35 and 30 adult Ctenocephalides fleas on study days −1, 8, 15, 22, 29, 36. Parasite counts were performed on study days 2, 9, 16, 23, 30, 37. Percent efficacy was calculated as arithmetic mean parasite numbers as life attached tick numbers and live flea numbers of the respective study group in comparison to parasite counts on a placebo-treated control group. Infestation of groups with less than 75% efficacy on two consecutive counting occasions will terminated for the respective parasite.

[2] = Evaluation of pharmacokinetics in vivo (rat); conditions: concentration of Parent Drug A after admin. of the named substance
Procedure: (§2) Evaluation of Pharmacokinetics (In Vivo) To evaluate the pharmacokinetics of test substances in vivo, these test substances are dissolved in appropriate formulation vehicles (ethanol, dimethyl sulfoxide, PEG400, glycerol formal etc.), or mixtures thereof. The test substances are then administered to rats or dogs intravenously, orally or subcutaneously. The intravenous application is performed as bolus. Administered doses range usually between 0.1 to 5 mg/kg, however, doses for subcutaneous and oral administration can exceed this range up to doses of 30 mg/kg. Blood samples are retrieved via a catheter, exsanguination or venous puncture in vials containing appropriate anticoagulants, such as lithium heparinate or potassium EDTA. Plasma is generated from the blood via centrifugation. Blood samples are taken over an appropriate time interval, usually lasting up to 144 h after administration. If necessary, samples from later time points can also be taken. If possible, time points are chosen so that the initial absorption phase, the maximum plasma concentration (Cmax), and exposure within a certain time interval (AUC(0-t))aer described. Furthermore, it is possible to also retrieve organ-, tissue- and urine samples. The quantitative measurement of the test substances in the samples is performed using calibration curves in the respective matrices. The protein content of the samples is precipitated using acetonitrile or methanol. Thereafter, the samples are separated using HPLC in combination with reversed phase chromatography columns. The HPLC system is coupled to a triple quadrupole mass spectrometer via an electrospray interface. The evaluation of the plasma concentration/time profiles are afterwards evaluated using a validated pharmacokinetics evaluation program. […] Relative bioavailability (Frel) was used to describe the exposure of parent drug after prodrug administration compared to the exposure of parent drug after direct administration of compound A which was normalised to 100%.

[3] = Degradation of prodrugs and release of parent drug in rat plasma; format: in vitro ADME; conditions: male, Hannover-Janvier RjHan, rat plasma (Li-heparin), 37° C., percent area of prodrug at t0
Procedure: Measurement of Release of Parent Drug in Rat Plasma 1 mg of the test compound was dissolved in 0.5 mL acetonitrile/dimethylsulfoxide 9:1. For complete dissolution the HPLC vial was shaken and treated with ultrasound. 20 μL of this solution were added to 1 mL of rat plasma (Li-heparin plasma, Hannover-Janvier rat, RjHan male) with vortexing at a temperature of 37° C. Aliquots (100 μL each) were taken at 0.17, 0.5, 1, 1.5, 2 and 4 hours. Each aliquot was transferred to a vial containing 300 μL of acetonitrile/citric acid buffer pH 3 8:2. These solutions were centrifuged at 5000 rpm for 10 minutes. The supernatant was analysed by HPLC (Method 8) to determine the amount of the test compound. In addition, the reaction mixture was analysed by method 9 (HPLC-MS) at the final timepoint. Both decrease of the prodrug concentration and increase of parent drug concentration were monitored. All data is given as percent area of the prodrug at to.

[4] = Measurement of stability of prodrugs in buffer at pH 7.4; format: physicochemical; conditions: PBS buffer pH 7.4, 37° C., HPLC peak area, read-out: % Recovery after 24 h (stability at pH 7.4)
Procedure: Preparation of the PBS buffer solution pH 7.4: 90 g sodium chloride, 13.61 g potassium dihydrogen phosphate, 83.35 g 1M aqueous sodium hydroxide were dissolved in water. More water was added up to a total volume of 1 L. This solution was diluted 1:10 with water. Eventually, pH was adjusted to pH 7.4 by the addition of phosphoric acid.
Measurement of Stability of Prodrugs in Buffer at pH 7.4
0.15 mg of the test compound were dissolved in 0.1 mL dimethylsulfoxide and 0.4 mL acetonitrile. For complete dissolution, the HPLC vial with the sample solution was shaken and treated with ultrasound. Then, 1.0 mL of PBS buffer solution pH 7.4 was added and the sample was vortexed. The sample solution was analysed by HPLC (method 8) to determine the amount of the test compound at a particular time over a period of 24 h at 37° C. The peak areas, given as percentage of total area, are used for quantification. In addition, the reaction mixture was analysed by method 9 (HPLC-MS) at the final timepoint.

[5] = system: Ctenocephalides felis adult; experiment: Antiparasitic activity after administration to rats: fleas; format: in vivo; conditions: Ctenocephalides felis adult; for In-vivo Efficacy SD2: study day 2; for In-vivo Efficacy SD9: study day 9; for In-vivo Efficacy SD16: study day 16
Procedure: as §1

[6] = Measurement of solubility in buffer at pH 6.5; format: physicochemical; conditions: aqueous buffer, kinetic from dmso stock; PBS buffer pH 6.5, shaken 24 h at rt, LC-MSMS; read-out: Solubility of example compounds at pH 6.5
Procedure: Measurement of Solubility in Buffer at pH 6.5 2-4 mg of the test compound are dissolved in DMSO to reach a concentration of 50 g/L (solution A). To 10 μL of this solution 960 μL PBS buffer pH 6.5 are added (final concentration: […]); the mixture is shaken for 24 h at rt in a 96 well plate. An aliquot is centrifuged at 42000 rpm für 30 min. The supernatant is diluted with acetonitrile/water (8:2) 1:10 and 1:1000 resp. This diluted samples are analyzed by LC-MSMS. Calibration: 10 μL of solution A are diluted with 823 μL DMSO (final concentration: 600 μg/mL), which is further diluted with acetonitrile/water 8:2 by a factor of 100 (provides solution B). The calibration curve is obtained from solution B by further diluting with acetonitrile/water 8:2 with target concentrations of 1.2-12-60-600 ng/mL and injecting these four solutions for MS measurement. PBS-Puffer: 6.18 g sodium chloride and 3.96 g sodium dihydrogen phosphate are dissolved in 1 L aqua dist., the pH is adjusted to 6.5 with IN sodium hydroxide.

[7] = Evaluation of pharmacokinetics in vivo (dog)
Procedure: as §2

AUC(0-144 h)norm of parent drug A ([2]; iv bolus): 12 kg·h/L | AUC(0-144 h)norm of parent drug A ([2]; sc): 6.7 kg·h/L | recovery at 0.17 h, 39 µg/mL ([3]; 0.17 h): 96% | recovery at 0.5 h, 39 µg/mL ([3]; 0.5 h): 95% | recovery at 1 h, 39 µg/mL ([3]; 1 h): 93% | recovery at 1.5 h, 39 µg/mL ([3]; 1.5 h): 92% | recovery at 2 h, 39 µg/mL ([3]; 2 h): 90% | recovery at 4 h, 39 µg/mL ([3]; 4 h): 86% | recovery at 24 h, 0.1 mg/mL [4]: 95% | solubility at 24 h [6]: 12 µg/mL (≈ 15.4 µM)
SMILES: N#CC1(N(COC(=O)CCC(=O)O)C(=O)c2cc(-c3cnn(-c4c(Cl)cc(C(F)(C(F)(F)F)C(F)(F)F)cc4OC(F)(F)F)c3)ccc2Cl)CC1 [Example 8, 4-{[(2-Chloro-5-{1-[2-chloro-4-(1,1,1,2,3,3,3-heptafluoropropan-2-yl)-6-(trifluoromethoxy)phenyl]-1H-pyrazol-4-yl}benzoyl)(1-cyanocyclopropyl)amino]methoxy}-4-oxobutanoic acid]
In-vivo Efficacy SD2 ([1]; 12.00 mg/kg sc): 100% | In-vivo Efficacy SD9 ([1]; 12.00 mg/kg sc): 100% | In-vivo Efficacy SD16 ([1]; 12.00 mg/kg sc): 99% | In-vivo Efficacy SD23 ([1]; 12.00 mg/kg sc): 100% | In-vivo Efficacy SD30 ([1]; 12.00 mg/kg sc): 100% | In-vivo Efficacy SD37 ([1]; 12.00 mg/kg sc): 100% | In-vivo Efficacy SD42 ([1]; 12.00 mg/kg sc, study day 42): 92% | In-vivo Efficacy SD2 ([5]; 12.00 mg/kg sc): 100% | In-vivo Efficacy SD9 ([5]; 12.00 mg/kg sc): 99% | In-vivo Efficacy SD16 ([5]; 12.00 mg/kg sc): 100% | In-vivo Efficacy SD23 ([5]; 12.00 mg/kg sc, study day 23): 100% | In-vivo Efficacy SD30 ([5]; 12.00 mg/kg sc, study day 30): 97% | In-vivo Efficacy SD37 ([5]; 12.00 mg/kg sc, study day 37): 88% | In-vivo Efficacy SD42 ([5]; 12.00 mg/kg sc, study day 42): 78%

AUC(0-72 h)norm of parent drug A ([7]; iv bolus, concentration of Parent Drug A after admin. of the named substance): 6.0 kg·h/L | bioavailability ([7]; plasma, sc, calculated based on AUC(0-t)norm, parent drug A normalised to 100%, read-out: Frel (relative bioavailability)): 100% | AUC(0-384 h)norm of parent drug A ([7]; sc, concentration of Parent Drug A after admin. of the named substance): 1.0 kg·h/L | AUC(0-144 h)norm of parent drug A ([2]; iv bolus): 11 kg·h/L | AUC(0-144 h)norm of parent drug A ([2]; sc): 1.7 kg·h/L
SMILES: N#CC1(NC(=O)c2cc(-c3cnn(-c4c(Cl)cc(C(F)(C(F)(F)F)C(F)(F)F)cc4OC(F)(F)F)c3)ccc2Cl)CC1 [Parent Drug A, 2-Chlor-5-{1-[2-chlor-4-(1,1,1,2,3,3,3-heptafluorpropan-2-yl)-6-(trifluormethoxy)phenyl]-1H-pyrazol-4-yl}-N-(1-cyanocyclopropyl)benzamide, reference compound]
In-vivo Efficacy SD2 ([1]; 10 mg/kg ip): 96% | In-vivo Efficacy SD9 ([1]; 10 mg/kg ip): 87% | In-vivo Efficacy SD16 ([1]; 10 mg/kg ip): 83% | In-vivo Efficacy SD23 ([1]; 10 mg/kg ip): 93% | In-vivo Efficacy SD30 ([1]; 10 mg/kg ip): 53% | In-vivo Efficacy SD37 ([1]; 10 mg/kg ip): 32% | In-vivo Efficacy SD2 ([1]; 10 mg/kg sc): 72% | In-vivo Efficacy SD9 ([1]; 10 mg/kg sc): 61% | In-vivo Efficacy SD2 ([5]; 10 mg/kg ip): 84% | In-vivo Efficacy SD9 ([5]; 10 mg/kg ip): 68% | In-vivo Efficacy SD16 ([5]; 10 mg/kg ip): 71% | In-vivo Efficacy SD2 ([5]; 10 mg/kg sc): 53% | In-vivo Efficacy SD9 ([5]; 10 mg/kg sc): 44%
